Measurements: US10787477B2, “Solid form of 4′-thio-2′-fluoronucleoside phosphamide compound and preparation method therefor and use thereof” (SICHUAN KELUN-BIOTECH BIOPHARMACEUTICAL CO., LTD., priority 2016, dated 2020)
Converted amounts (≈) assume the structure as drawn.

What was measured:
[1] = Drug excretion experiment in mice (radioactivity recovery in urine and feces); format: in vivo, ICR mice
Description: Crystalline form A having a radioisotope ([^14C] crystalline form A) is formulated as a suspension in 0.5% sodium carboxymethylcellulose (CMC-Na), and ICR mice were administered by single gavage at a dose of 117 μCi/4.08 mg/kg [^14C] crystalline form A. The absorption and excretion characteristics of crystalline form A were examined by measuring the radioactivity recovery in urine and feces.

[2] = Equilibrium solubility study in deionized water; format: physicochemical; conditions: for crystal transformation (XRPD of the solid): dispersed in water for 24 hours
Description: About 2.0 to 5.0 mg of each of crystalline form A, crystalline form B and crystalline form D of the compound of Formula (I) was weighed, added to a 3 ml vial, and added with 1.0 ml of deionized water. The resulting suspension was then placed in a rotary incubator (rotation speed was 25 rpm), and equilibrated in a biochemical incubator at 25° C. for 24 hours before 0.8 ml of the suspension was taken. The suspension was centrifuged (6000 rpm, 15 minutes), the supernatant was detected by HPLC for solubility, and the XRPD pattern of the solid was detected.

[3] = Stability relationship (slurry of crystalline forms in water pre-saturated with form A); format: physicochemical; conditions: slurried in H2O pre-saturated with crystalline form A, room temperature, about 4 days
Description: An equal weight of each of crystalline forms A, B and D (8 mg each) was weighed and respectively added to a H2O solution (0.3 ml) pre-saturated with a sample of crystalline form A at room temperature, and the resulting suspension was slurried at room temperature for about 4 days before isolation of the solid. The wet and dry samples were respectively subjected to XRPD pattern detection.

[4] = High temperature experiment; format: physicochemical; conditions: 60° C.
Description: (§1) Crystalline form A of the compound of Formula (I) was allowed to stand at a high temperature of 60° C. for 30 days, and samples were taken at Day 0, 5, 10, and 30, respectively, to observe changes in the properties of the samples. The specific optical rotation was measured with a polarimeter, the loss on drying was measured, and the total impurity content was measured by HPLC.

Light experiment = format: physicochemical; conditions: light intensity of 4500 1×, 25° C., RH 25%
Description: as §1, with “was placed under the conditions of” for “was allowed to stand at”, “a light intensity” for “a high temperature”, “of 4500 1×, 25° C., and RH 25%” for “of 60° C.”, “taken on” for “taken at”, “5, 11” for “5, 10,”

High humidity experiment = format: physicochemical; conditions: 25° C. and RH 75%
Description: Crystalline form A of the compound of Formula (I) was placed under a high humidity condition of 25° C. and RH 75% for 30 days, and samples were taken at Day 0, 5, 10, and 30, respectively, to observe changes in the properties of the samples. The specific optical rotation was measured with a polarimeter, the loss on drying was measured, and the total impurity content was measured by HPLC.

[5] = Pharmacokinetic experiment in mice; format: in vivo, ICR mice; conditions: single gavage
Description: Crystalline form A of the compound of Formula (I) was formulated as a suspension in 0.5% sodium carboxymethylcellulose (CMC-Na), and ICR mice were administered by single gavage to investigate the pharmacokinetic characteristics. The single gavage doses were 2 mg/kg, 4 mg/kg and 8 mg/kg, respectively.
The pharmacokinetic parameters were each calculated according to the concentration-time curve of metabolite I in plasma.

[6] = Pharmacokinetic experiment in beagle dogs; format: in vivo; conditions: single gavage
Description: Crystalline form A of the compound of Formula (I) was formulated as a suspension in 0.5% CMC-Na, and administered by single gavage to beagle dogs. The single gavage doses were 0.1 mg/kg, 0.2 mg/kg and 0.4 mg/kg, respectively.

[7] = Solid state stability at 40° C./75% RH; format: physicochemical; conditions: open container, 8 days
Description: A suitable amount of crystalline form A of the compound of Formula (I) was weighed as a test sample, and it was left in an open container for 8 days under conditions of 40° C./75% RH (RH means relative humidity). The XRPD pattern of the test sample after the treatment was detected, and the purity was measured by HPLC.

[8] = inferred from urine radioactivity recovery

Compound: CC(C)OC(=O)[C@H](C)N[P@](=O)(OC[C@H]1S[C@@H](n2ccc(N)nc2=O)[C@@H](F)[C@@H]1O)Oc1ccccc1 [[^14C] crystalline form A]
- radioactivity recovery in urine ([1]; single gavage 117 μCi/4.08 mg/kg, within 0 to 120 hours): 78.7%
- radioactive substances excreted in urine and feces, of the administered amount ([1]; single gavage, within 48 hours after administration): 84.5%

Compound: CC(C)OC(=O)[C@H](C)N[P@](=O)(OC[C@H]1S[C@@H](n2ccc(N)nc2=O)[C@@H](F)[C@@H]1O)Oc1ccccc1 [crystalline form B, (S)-isopropyl 2-(((S)-(((2R,3S,4S,5R)-5-(4-amino-2-oxopyrimidin-1(2H)-yl)-4-fluoro-3-hydroxytetrahydrothiophen-2-yl)methoxy)(phenoxy)phosphoryl)amino)propanoate]
- solubility in water ([2]; deionized water, 25° C., after 24 hours, HPLC): ~1800 µg/mL (≈ 3390 µM)
- crystal transformation (XRPD of the solid) ([2]; 25° C.): did not undergo crystal transformation
- stability relationship / conversion of crystalline form (XRPD) [3]: converted to crystalline form A

Compound: CC(C)OC(=O)[C@H](C)N[P@](=O)(OC[C@H]1S[C@@H](n2ccc(N)nc2=O)[C@@H](F)[C@@H]1O)Oc1ccccc1 [crystalline form A, (S)-isopropyl 2-(((S)-(((2R,3S,4S,5R)-5-(4-amino-2-oxopyrimidin-1(2H)-yl)-4-fluoro-3-hydroxytetrahydrothiophen-2-yl)methoxy)(phenoxy)phosphoryl)amino)propanoate]
- appearance ([4]; 30 days): no change in the appearance
- variation in the specific optical rotation ([4]; Day 0 to Day 30): ≤ 2 °
- loss on drying % ([4]; different time points): ≤ 1.07%
- total impurity content detected by HPLC ([4]; different time points): remained substantially unchanged
- appearance (Light experiment; 30 days): no change in the appearance
- variation in the specific optical rotation (Light experiment; Day 0 to Day 30): ≤ 3 °
- loss on drying % (Light experiment; different time points): ≤ 1.0%
- total impurity content detected by HPLC (Light experiment; different time points): remained substantially unchanged
- appearance (High humidity experiment; 30 days): no change in the appearance
- variation in the specific optical rotation (High humidity experiment; Day 0 to Day 30): ≤ 1 °
- loss on drying % (High humidity experiment; different time points): ≤ 1.0%
- total impurity content detected by HPLC (High humidity experiment; different time points): remained substantially unchanged
- metabolism upon entering the body [5]: rapidly metabolized as pharmacologically active metabolite I
- solubility at 24 h ([2]; deionized water, 25 °C, water, thermodynamic from solid, deionized water, after 24 hours, HPLC): ~1000 µg/mL (≈ 1880 µM)
- crystal transformation (XRPD of the solid) ([2]; 25° C.): did not undergo crystal transformation
- metabolism upon entering the body [6]: rapidly metabolized as pharmacologically active metabolite I
- stability relationship / conversion of crystalline form (XRPD) [3]: more stable at room temperature
- crystal transformation (XRPD) [7]: did not undergo crystal transformation
- relative purity of the sample (HPLC) [7]: 99.9%
- absolute bioavailability by intragastric administration [1, 8]: above 78.7%
- proportion of the drug ingredient absorbed into the blood by oral administration [1, 8]: at least 78.7%

Compound: CC(C)OC(=O)[C@H](C)N[P@](=O)(OC[C@H]1S[C@@H](n2ccc(N)nc2=O)[C@@H](F)[C@@H]1O)Oc1ccccc1 [crystalline form D, (S)-isopropyl 2-(((S)-(((2R,3S,4S,5R)-5-(4-amino-2-oxopyrimidin-1(2H)-yl)-4-fluoro-3-hydroxytetrahydrothiophen-2-yl)methoxy)(phenoxy)phosphoryl)amino)propanoate]
- crystal transformation (XRPD of the solid) ([2]; 25° C.): underwent crystal transformation
- stability relationship / conversion of crystalline form (XRPD) [3]: converted to crystalline form A
